Measured values published in US20230241167A1, “Use of Caveolin-1 Scaffolding Domain Peptides for Treating Disease and Disorders” (MUSC Foundation for Research Development, priority 2020, published 2023).
Square brackets hold non-standard residues; d marks the D form. Ends that are not written are not given here. Peptide text beside a SMILES is read from it.

Columns and labels:
[1] = system: aged mice (18-month old), brain tissue; assay: Aging-associated pathological changes in the brain of aged mice; format: in vivo; conditions: 18-month old mice; CSD injections for four weeks; Western blot
Method: FIG. 16 provides an overview of an experiment using CSD (SEQ ID NO: 1). It is similar to the experiment described in FIG. 9 except that the readouts were performed on brain tissue rather than heart and kidney tissue.
Mice were treated as described in FIG. 10, except that CSD injections were for four weeks. Brain tissue extracts were analyzed by Western blot for microvascular leakage and fibrosis (FIG. 17) and for tyrosine kinase activation (FIG. 18). In the quantifications (n=3), significant changes are shown as ***p<0.001 and **p<0.01 between young and aged mice and ^^^p<0.001 and ^^p<0.01 for decreases in aged mice due to CSD treatment.

[2] = system: fibrosis in lung, skin, and heart; conditions: literature; cited from earlier work
[3] = system: aged C57/Bl6 mice (18 months); assay: Aging-associated pathological changes in heart and kidney of aged mice; format: in vivo; conditions: echocardiography
Ang II-infused mice = assay: Angiotensin II-induced congestive heart failure (CHF) model; format: in vivo; conditions: for suppression of the effects of AngII on Heart Weight/Body Weight (HW/BW) ratio: young mice (3 months) infused with Ang II two weeks
Method: FIG. 1 provides an overview of an experiment using Full-Length CSD, 82-89, 88-95, and 94-101 (SEQ ID NO:1, SEQ ID NO:2, SEQ ID NO:3, and SEQ ID NO:4 respectively).
Young mice (3 months old) infused with Ang II or vehicle for two weeks received daily i.p. injections of CSD, the indicated subdomains or scrambled CSD (0.8 μmol/kg). Mice were evaluated by Echocardiography for changes in posterior wall thickness (pWTh), fractional shortening (FS), cardiac output (CO), ejection fraction (EF), and isovolumic relaxation time (IVRT). Significant changes are shown as ***p<0.001 for Sham+Veh vs AngII+Veh. Significant suppression of AngII-induced changes is shown as ^p<0.05, ^^p<0.01, and ^^^p<0.001 for AngII+Veh vs AngII+CSD or AngII+CSD subdomains. The number of mice used in each treatment are shown in the HW/BW data.
Young mice (3 months old) infused with Ang II or vehicle for two weeks received daily i.p. injections of the indicated subdomains of CSD. The results of a typical experiment for Col I and HSP47 (FIG. 4) and for microvascular leakage (FIG. 5) are shown in Western blots (2 to 3 mice per group). The data are quantified below (n=4). Significant changes are shown as *p<0.05 and **p<0.01 for Sham+Veh vs Ang II+Veh. Significant suppression of Ang II-induced changes by subdomains are shown as ^p<0.05, […], and ^^^p<0.001 for Ang II+Veh vs Ang II+CSD subdomains.
Young mice (3 months old) infused with Ang II or vehicle for two weeks received daily i.p. injections of W82-89. IgG heavy chain (IgGH) leakage and Col I accumulation are shown in Western blots. The actin loading control is present twice because IgGH was analyzed in the supernatant fraction of heart homogenate while Col I is found in the pellet fraction. In the quantitation (n=4), significant changes are shown as **p<0.01 and ***p<0.001 for Sham+Veh vs Ang II+Veh and ^^p<0.01 and ^^^p<0.001 for reversal of AngII-induced changes by W82-89.

[4] = system: aged C57/Bl6 mice (18 months); assay: Aging-associated pathological changes in heart and kidney of aged mice; format: in vivo
Method: The function of various organs in the elderly goes downhill progressively. This is in part due to increases in fibrosis and microvascular leakage. The experiments presented in this Example have examined these progressive processes in mice.
Young C57/Bl6 mice (3 months), middle-aged C57/Bl6 mice (9 months), and aged C57/Bl6 mice (18 months) were injected daily i.p. for six weeks with saline vehicle or CSD. IgG heavy chain leakage and Col I accumulation were evaluated by Western blots of heart (FIG. 10) and kidney tissue (FIG. 11). Actin was the loading control. Two to three mice per category are shown. In the quantifications (n=4), significant changes are shown as ***p<0.001 between young and aged mice and ^^^p<0.001 for decreases in aged mice treated with CSD. In FIG. 12, representative examples of picrosirius red staining of heart and kidney tissue sections from the indicated mice are shown. The data were quantified (n=3) as in terms of Collagen Volume Fraction. Significant changes are shown as ***p<0.001 and **p<0.01 between young and aged mice and ^p<0.05 for decreases in aged mice treated with CSD.
The same extracts used in FIG. 10 and FIG. 11 were analyzed by Western Blot for tyrosine kinase activation using antibodies specific for phosphorylated tyrosine residues in PDGFR (α-Y849/β-Y857), c-Src Y426, and Pyk2 Y402. Actin was the loading control. In the quantifications, significant changes are shown as ***p<0.001 and **p<0.01 between young and aged mice and ^^^p<0.001 and ^^p<0.01 for decreases in Aged mice treated with CSD.
Echocardiographic analyses were performed on the same mice used in FIG. 10 and FIG. 11 prior to their sacrifice. M-mode echo measurements in parasternal short-axis (PSAX) view were used to quantify changes in EF and FS. Tissue Doppler measurements in PSAX were used to measure IVRT. Values are shown as Mean±SEM. Statistically significant changes are shown as ***p<0.001 between young and aged mice and ^p<0.05 for improved functions in aged mice due to CSD treatment (FIG. 14).
Left ventricle tissue sections from the same mice used in FIG. 10 were stained with hematoxylin-eosin and cardiomyocyte cross-sectional area was quantified by measuring at least 50 cardiomyocytes for each group (n=3) using SigmaScan Pro image analysis. Statistical significance is shown as ***p<0.001 between young and aged mice and ^p<0.05 for decreased hypertrophy in aged mice due to CSD treatment (FIG. 15).

bleomycin-treated mice = assay: Bleomycin-induced lung and skin fibrosis, treatments delivered by pump; format: in vivo
Method: Experiments were conducted to examine the effect of unmodified CSD subdomains on lung and skin fibrosis. […] Pumps containing bleomycin or saline vehicle were implanted subcutaneously into mice. After one week, the pumps had emptied and were replaced with pumps designed to empty over two weeks containing the indicated treatments (n=6 per group). After these two weeks, the mice were sacrificed.
Skin in the vicinity of the pump outlet was harvested for measurement of the thickness of the dermis and the intradermal fat. ^^^p<0.001 for Saline/Vehicle vs Bleo/Vehicle. ***p<0.001, **p<0.01, *p<0.05 for Bleo/Vehicle vs Bleo/Peptide Treatments.

[5] = system: Bone marrow (BM) monocytes; assay: Migration of bone marrow monocytes from bleomycin-treated mice treated in vivo; conditions: mice treated in vivo prior to harvesting the monocytes
Source text: Recruitment of activated monocytes into damaged lung tissue contributes to the progression of fibrosis and is suppressed in vivo by CSD (FIG. 22). Bone marrow (BM) monocytes were isolated from control and bleomycin-treated mice.

[6] = Plasma level of fluoresceinated W82-89 after i.p. or i.n. delivery; set-up: species or system mice; conditions: mouse, in vivo
Method: administration of the water soluble CSD peptides is a promising route of delivery. Two mice received a single i.p. injection of 0.8 μmol/kg fluoresceinated W82-89 in 100 μl PBS. Two mice received fluoresceinated W82-89 i.n. (4 μmol/kg in 30 μl PBS (15 μl per nostril)). Using calibrated capillary tubes, 50 μl of blood was collected from the maxillary vein from one mouse from each pair at 3 min, 30 min, 2 h, and 6 h; and from the other mouse from each pair at 10 min, 1 h, 4 h, and 8 h. Blood was immediately diluted with 200 μl PBS/10 mM EDTA, and centrifuged to harvest plasma. The level of W82-89 in the plasma was determined using a fluorescent plate reader.

[7] = in vivo, ip
Method: Following a single i.p. dose of the indicated fluorescent peptides, blood was collected from the maxillary vein at intervals and the levels of the peptides in plasma derived from the blood was determined using a fluorescent plate reader.

[8] = 18-month old mice, daily i.p. six weeks, Western blot
[9] = aged mice, Western blot for phosphorylated tyrosine residues
[10] = skin in the vicinity of the pump outlet

For “caveolin-1 scaffolding domain peptide (DGIWKASFTTFTVTKYWFYR-NH2) [CSD, amino acids 82-101 of caveolin-1]”, the “level of activated tyrosine kinases in the brain” value [1] was “decreases these levels almost to the levels observed in healthy 3-month old mice”, the “level of fibrosis in the brain” value [1] was “decreases these levels almost to the levels observed in healthy 3-month old mice” and the “level of microvascular leakage in the brain” value [1] was “decreases these levels almost to the levels observed in healthy 3-month old mice”. For the same compound, the “inhibition of fibrosis in vivo” value [2] was “inhibits fibrosis in vivo in lung, skin, and heart”, the “FS and SV (ventricular function)” value [3] was “positive effect” and the “suppression of the effects of AngII on Heart Weight/Body Weight (HW/BW) ratio” value (Ang II-infused mice; daily i.p. injections) was “suppress”. For the same compound, the “suppression of the effects of AngII on Ejection Fraction (EF), Fractional Shortening (FS), Isovolumic Relaxation Time (IVRT)” value (Ang II-infused mice; young mice infused with Ang II two weeks, daily i.p. injections, echocardiography) was “suppress”, the “level of fibrosis (Col I accumulation) in the heart” value [4, 8] was “reverses the levels of fibrosis and microvascular leakage almost to the level observed in 3-month old mice” and the “level of fibrosis (Col I accumulation) in the kidney” value [4, 8] was “reverses the levels of fibrosis and microvascular leakage almost to the level observed in 3-month old mice”. The “level of microvascular leakage (IgG heavy chain) in the heart” value [4, 8] was “reverses the levels of fibrosis and microvascular leakage almost to the level observed in 3-month old mice”, the “level of microvascular leakage (IgG heavy chain) in the kidney” value [4, 8] was “reverses the levels of fibrosis and microvascular leakage almost to the level observed in 3-month old mice” and the “picrosirius red staining (collagen volume fraction), heart” value ([4]; aged mice, heart tissue sections) was “significantly reduced”. For the same compound, the “picrosirius red staining (collagen volume fraction), kidney” value ([4]; aged mice, kidney tissue sections) was “significantly reduced”, the “aging-associated activation of tyrosine kinases PDGFR, c-Src and Pyk2, heart” value [4, 9] was “almost completely reversed” and the “aging-associated activation of tyrosine kinases PDGFR, c-Src and Pyk2, kidney” value [4, 9] was “almost completely reversed”. The “IVRT (prolonged ventricular relaxation time caused by aging)” value ([4]; aged mice, echocardiography) was “resolved by CSD treatment”, the “cardiomyocyte hypertrophy (cross-sectional area)” value ([4]; aged mice, left ventricle sections) was “reversed” and the “dermal fibrosis (thickness of the dermis)” value (bleomycin-treated mice; [10]) was “suppression”. The “loss of intradermal fat” value (bleomycin-treated mice; [10]) was “suppression”, the “bleomycin-induced lung fibrosis (Ashcroft score)” value (bleomycin-treated mice; treatment by pump over two weeks after one week bleomycin, n=6) was “suppression” and the “enhanced migration of BM monocytes from bleomycin-treated mice” value [5] was “suppression”.
In the case of CC[C@H](C)[C@H](NC(=O)CNC(=O)[C@H](CC(=O)O)NC(=O)[C@@H](CCCCN)NC(=O)[C@@H](CCCCN)NC(C)=O)C(=O)N[C@@H](Cc1c[nH]c2ccccc12)C(=O)N[C@@H](CCCCN)C(=O)N[C@@H](C)C(=O)N[C@@H](CO)C(=O)N[C@@H](Cc1ccccc1)C(=O)N[C@H](CCCCN)C(=O)N[C@H](CCCCN)C(N)=O [W82-89] (Ac-[dK][dK]DGIWKASF[dK][dK]-NH2), the “Area Under the Curve for i.n. delivery relative to i.p. dose” value [6] is reported as over 1.5 fold, the “uptake into plasma following i.p. administration” value [7] is reported as “much greater than the uptake of CSD or WCSD” and the “suppression of AngII-induced fibrosis (Col I levels) in the heart” value (Ang II-infused mice; W82-89 experiment (FIG. 6, 7), daily i.p. injections) is reported as “suppressed by W82-89 with high significance”. The “suppression of AngII-induced microvascular leakage in the heart (IgG heavy chain level in the tissue)” value (Ang II-infused mice; Western blot, daily i.p. injections) was “suppressed by W82-89 with high significance”, the “overall effectiveness of domains in the CHF model (summary of FIGS. 1-7)” value (Ang II-infused mice; summary, FIG. 8) was “more effective than 82-89 and at least as effective as 88-95” and the “suppression of the effects of AngII on Heart Weight/Body Weight (HW/BW) ratio” value (Ang II-infused mice; daily i.p. injections) was “suppressed by W82-89 with high significance”.
